Measured values taken from PMC8151400, “Evidence of the Involvement of a Plus-C Odorant-Binding Protein HparOBP14 in Host Plant Selection and Oviposition of the Scarab Beetle Holotrichia parallela” (Insects, 2021).
Counter-ions that a name gives are not always drawn. Like-named read-outs stand apart in the source and are kept apart here.

What was measured:
recombinant HparOBP14 = recombinant HparOBP14 (Holotrichia parallela, UniProt A0A0G2YD86); experiment: biochemical; type: binding; settings: for binding ability with HparOBP14: 1-NPN displacement, Figure 5
recombinant HparOBP14, sequence (A0A0G2YD86 entry or part of it): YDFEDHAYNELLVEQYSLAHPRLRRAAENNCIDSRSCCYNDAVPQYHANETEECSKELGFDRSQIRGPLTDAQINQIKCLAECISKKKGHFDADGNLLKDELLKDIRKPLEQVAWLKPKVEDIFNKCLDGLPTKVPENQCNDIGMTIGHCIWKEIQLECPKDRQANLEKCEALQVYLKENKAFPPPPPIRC
Description: To determine the affinity of HparOBP14 to odorant volatiles, the fluorescent displacement binding assay was carried out. A total of 27 compounds was selected, including 7 compounds from host plant (elm) volatiles, 11 compounds from organic fertilizer volatiles, and 9 compounds common in both of them. The odorant compounds (purity ≥95%) were purchased from Sigma-Aldrich. The fluorescent probe N-phenyl-1-naphthylamine (1-NPN) was dissolved in methanol (chromatographic grade) to a final concentration of 1 mM and used as the stock solution. The stock solution of the purified protein was diluted with Tris-HCl (50 mmol/L, pH 7.4) to a final concentration of 2 μM and added into a colorimetric plate cuvette. The 1-NPN stock solution was then successively added to the protein solution to the final concentrations ranging from 2 μM to 20 μM. The fluorescence changes were recorded to get K1-NPN, the dissociation constant of the complex HparOBP14/1-NPN.
The binding ability of HparOBP14 to the odorant compounds was determined by titrating the mixture of the protein and the 1-NPN (final concentration 2 μM of both) with each odorant compound at final concentrations ranging from 2 μM to 40 μM. The competitive dissociation constant was calculated from the corresponding IC50 values using the following equation: Ki = [IC50]/(1+ [1-NPN]/K1-NPN), where [1-NPN] is the free concentration of 1-NPN; K1-NPN is the dissociation constant of the complex HparOBP14/1-NPN.
The fluorescence changes during the binding of either 1-NPN or odorant compounds to the HparOBP14 protein were measured and recorded with the excitation wavelength of 337 nm and within a wavelength range of 350~550 nm by a 970CRT fluorescence spectrophotometer (Yidian Analytical Instrument Company, Shanghai, China).

[1] = tested on: antennae of H. parallela female adults; experiment: Electroantennogram (EAG) recording after dsRNA injection; type: in vivo, Holotrichia parallela; settings: 20 μL of 1 μg/μL in paraffin oil; for change of EAG responsive amplitude in dsHparOBP14-injected insects compared to uninjected control: 48 h after dsHparOBP14 injection; for EAG response: female adults
Description: (§1) The dsRNAs of HparOBP14 and GFP (GenBank number: ACY56286) (for primers, see Table S1) were synthesized using a T7 Ribo MAX™ Express RNAi System (Promega, Madison, WI, USA) according to the manufacturer’s instructions. The GFP-dsRNA was used as the negative control. Nine-to-eleven-day-old female adult beetles were injected with 2 μg dsRNA into the adult head with a 5 μL injection needle (7000 series syringes, Hamilton, USA), then kept under the same condition as 2.1 described above. The antennae were dissected at 24 h, 48 h, 72 h, and 96 h after injection, and the samples were stored at −80 °C for further RT-qPCR analyses.
The EAG recording was conducted on the adult antennae with the EAG micromanipulator MP-15 and analyzed with EAG-Pro (Syntech, Kirchzarten, Germany). Briefly, two ends of the antennae were set on electrode holders with a conductive adhesive (Spectra 360 electrode gel). An ashless filter paper (Hangzhou Special Paper Co., Ltd., Hangzhou, China) was cut into strips (3 cm × 0.5 cm). A 20 μL compound solution (concentration 1 μg/μL in paraffin oil) was applied onto the paper strip which was then placed in a Pasteur tube (17 cm × […]) and applied to the antennae by purified air at a flow rate of 1 L/min. The paraffin oil (20 μL) was used as a control. The stimulus recording time was 0.5 s and the interval between two stimulations was more than 1 min.

[2] = tested on: female Holotrichia parallela adults; experiment: Y-tube olfactometer behavioral bioassay; type: in vivo; settings: for change of attraction after injection of dsHparOBP14: dsHparOBP14-injected females; for behavioral response of uninjected female beetles: uninjected females, vs paraffin oil
Description: as §1
The Y-tube olfactometer mainly consisted of a Y-shaped glass tube (main arm, 30 cm; sidearm, 20 cm; inner diameter, 2.5 cm; side arm angle, 60 degrees), an air sampler, a drying tower, a gas scrubber, and a flow meter. Two gas-washing cylinders were successively connected with the flow meter, drying tower, air pump, and Y-shaped glass tube through rubber pipes. The testing compound (concentration 1 μg/μL in paraffin oil) and paraffin oil (as control) were taken and dropped respectively into a rubber septum (Pherobio Technology Co., Ltd., Beijing, China) and placed respectively into the side arms of the Y-tube. The flow rate of the atmospheric air sampler was adjusted to 500 mL/min.
A female adult beetle was introduced into the main arm at the downwind end of the Y-olfactometer. Each beetle was given 5 min to respond to the treatment, and the first choice that the beetle made for each of the lateral arms was recorded. The response was regarded as valid only if the beetle crawled more than 3 cm into a lateral arm and stayed for more than 1 min.
For each compound, more than 90 beetles were tested individually until 90 responsive beetles were obtained. Each individual beetle was tested only once, and the Y-olfactometer was replaced after every 10 beetles were tested to eliminate the odor effect. The number of individual beetles that selected the compound-treated arm of the Y-olfactometer was statistically compared with the number of beetles that selected the solvent-treated arm using a Chi-square goodness of fit test.

[3] = HparOBP14 and 1-NPN 2 µM each, titrated with compound 2–40 μM, read-out: IC50
[4] = calculated from IC50: Ki = [IC50]/(1+[1-NPN]/K1-NPN), read-out: Ki
[5] = HparOBP14 and 1-NPN 2 µM each, titrated with compound 2–40 μM

IC50 (recombinant HparOBP14; [3]) | Ki (recombinant HparOBP14; [4]) | binding ability with HparOBP14 (recombinant HparOBP14) | Structure (SMILES) | Int (%): relative fluorescence intensity of 1-NPN/HparOBP14 complex after the addition of testing compound (recombinant HparOBP14; [5]) | IC50 (recombinant HparOBP14) | Ki (recombinant HparOBP14) | change of EAG responsive amplitude in dsHparOBP14-injected insects compared to uninjected control [1] | change of attraction after injection of dsHparOBP14 [2] | behavioral response of uninjected female beetles [2] | EAG response [1] | Kd (recombinant HparOBP14)
> 40 µM | > 34.1 µM |  | CCCCCCCC=O [octanal] |  |  |  |  |  |  |  | 
> 40 µM | > 34.1 µM | weaker, or no, binding ability | CC/C=C\CCOC(C)=O [cis-3-hexenyl acetate] | 81.43% |  |  |  |  |  |  | 
 |  |  | c1ccc2[nH]ccc2c1 [indole] | 82.23% | > 40 µM | > 34.1 µM |  |  |  |  | 
> 40 µM | > 34.1 µM | weaker, or no, binding ability | CC/C=C\CCOC=O [cis-3-hexenyl formate] | 81.25% |  |  |  |  |  |  | 
 |  |  | C=CCc1ccc(O)c(OC)c1 [eugenol] | 86.03% | > 40 µM | > 34.1 µM |  |  |  |  | 
> 40 µM | > 34.1 µM |  | CCCCCCCCCC=O [decanal] | 77.88% |  |  |  |  |  |  | 
> 40 µM | > 34.1 µM |  | CCCCCCCCCCCC=O [dodecyl aldehyde] | 92.42% |  |  |  |  |  |  | 
 |  |  | CC/C=C\CCO [(Z)-3-hexen-1-ol] | 96.53% | > 40 µM | > 34.1 µM |  |  |  |  | 
> 40 µM | > 34.1 µM |  | C=C1CC/C=C(\C)CC[C@@H]2[C@@H]1CC2(C)C [β-caryophyllen] |  |  |  |  |  |  |  | 
> 40 µM | > 34.1 µM |  | CC1=CCC2C(C1)C2(C)C (stereo not drawn) [3-carene] | 68.52% |  |  |  |  |  |  | 
24.6 µM | 21 µM |  | Cc1c[nH]c2ccccc12 [3-methylindole] | 56.22% |  |  | do not change significantly | no obvious change | attracted | clear responses | 
> 40 µM | > 34.1 µM |  | CCCC(O)CC (stereo not drawn) [3-hexanol] | 84.27% |  |  |  |  |  |  | 
 |  |  | CC(C)=CCC/C(C)=C/CO [geraniol] | 72.07% | 40 µM | 34.1 µM | decreased significantly | markedly reduced | attracted |  | 
 |  |  | c1ccc(Nc2cccc3ccccc23)cc1 [1-NPN, N-phenyl-1-naphthylamine, reference compound] |  |  |  |  |  |  |  | 5.8 µM
 |  |  | CC(=O)CCC=C(C)C [6-methyl-5-hepten-2-one] | 61.66% | 32 µM | 28.2 µM | do not change significantly | significantly increased | attracted | clear responses | 
 |  |  | Cc1ccc(C(C)C)cc1 [p-cymene] | 62.70% | 29.9 µM | 25.5 µM | decreased significantly | no obvious change | attracted |  | 
 |  |  | CC1=CCC2CC1C2(C)C (stereo not drawn) [α-pinene] | 67.49% | 38.5 µM | 32.8 µM | decreased significantly | significantly increased | attracted |  | 
 |  |  | CCCC(=O)O [butyric acid] | 99.07% | > 40 µM | > 34.1 µM |  |  |  |  | 
> 40 µM | > 34.1 µM | weaker, or no, binding ability | CCCCC(CC)CO (stereo not drawn) [2-ethylhexanol] | 85.80% |  |  |  |  |  |  | 
> 40 µM | > 34.1 µM |  | CCCCCCCCC=O [1-nonanal] | 69.22% |  |  |  |  |  |  | 
 |  |  | Cc1ccc(O)cc1 [p-cresol] | 91.23% | > 40 µM | > 34.1 µM |  |  |  |  | 

Structure (SMILES) | IC50 (recombinant HparOBP14; [3]) | Ki (recombinant HparOBP14; [4]) | binding ability with HparOBP14 (recombinant HparOBP14) | Int (%): relative fluorescence intensity of 1-NPN/HparOBP14 complex after the addition of testing compound (recombinant HparOBP14; [5]) | IC50 (recombinant HparOBP14) | Ki (recombinant HparOBP14) | change of EAG responsive amplitude in dsHparOBP14-injected insects compared to uninjected control [1] | change of attraction after injection of dsHparOBP14 [2] | behavioral response of uninjected female beetles [2] | EAG response [1] | Kd (recombinant HparOBP14)
CO [methanol] | 32.1 µM | 27.4 µM |  | 65.66% |  |  | decreased significantly | markedly reduced | attracted |  | 
C=O [formaldehyde] | 34.6 µM | 29.5 µM |  | 68.91% |  |  | decreased significantly | no obvious change | attracted |  | 
CCCCCCCO [1-heptanol] |  | > 34.1 µM |  | 83.41% | > 40 µM |  |  |  |  |  | 
CCCCCCO [1-hexanol] |  | > 34.1 µM |  | 72.19% | > 40 µM |  |  |  |  |  | 
C=C1C2CCC(C2)C1(C)C (stereo not drawn) [camphene] | > 40 µM | > 34.1 µM |  | 83.88% |  |  |  |  |  |  | 
CC1=CC[C@H](C(C)C)C=C1 (racemic) [α-phellandrene] |  |  | weaker, or no, binding ability | 83.00% | > 40 µM | > 34.1 µM |  |  |  |  | 
C=CC(C)(O)CCC=C(C)C (stereo not drawn) [linalool] |  |  | weaker, or no, binding ability | 89.20% | > 40 µM | > 34.1 µM |  |  |  |  | 
